Laboratory results taken from the kinase profiling compilation of Christmann-Franck et al. (2016).

Assays:
Assay in all cases: radiometric filter-binding kinase assay
[1] = test system: AKT1 (human), P31749 [S473D]; conditions: ATP 5 µM
AURKC (human) = AURKC (human) (UniProt Q9UQB9); conditions: compound 1.0 µM; ATP 5 µM
CAMKK2 (human) = CAMKK2 (human) (UniProt Q96RR4); conditions: ATP 20 µM
CHEK2 (human) = CHEK2 (human) (UniProt O96017); conditions: ATP 20 µM
CSK (human) = CSK (human) (UniProt P41240); conditions: compound 1.0 µM; ATP 20 µM
CaMK1 (human) = CaMK1 (human) (UniProt Q14012); conditions: ATP 50 µM
DYRK1A (human) = DYRK1A (human) (UniProt Q13627); conditions: ATP 50 µM
DYRK2 (human) = DYRK2 (human) (UniProt Q92630); conditions: ATP 50 µM
IKBKB (human) = IKBKB (human) (UniProt O14920); conditions: ATP 5 µM
MAPK10 (human) = MAPK10 (human) (UniProt P53779); conditions: ATP 50 µM
MAPK13 (human) = MAPK13 (human) (UniProt O15264); conditions: ATP 5 µM
MAPK14 (human) = MAPK14 (human) (UniProt Q16539); conditions: ATP 50 µM
MAPK15 (human) = MAPK15 (human) (UniProt Q8TD08); conditions: ATP 5 µM
MAPKAPK2 (human) = MAPKAPK2 (human) (UniProt P49137); conditions: ATP 20 µM
MAPKAPK3 (human) = MAPKAPK3 (human) (UniProt Q16644); conditions: compound 1.0 µM; ATP 20 µM
MAPKAPK5 (human) = MAPKAPK5 (human) (UniProt Q8IW41); conditions: ATP 20 µM
MELK (human) = MELK (human) (UniProt Q14680); conditions: compound 1.0 µM; ATP 50 µM
MKNK2 (human) = MKNK2 (human) (UniProt Q9HBH9); conditions: ATP 50 µM
NEK6 (human) = NEK6 (human) (UniProt Q9HC98); conditions: ATP 50 µM
NEK7 (human) = NEK7 (human) (UniProt Q8TDX7); conditions: ATP 20 µM
PAK6 (human) = PAK6 (human) (UniProt Q9NQU5); conditions: compound 1.0 µM; ATP 20 µM
PAK7 (human) = PAK7 (human) (UniProt Q9P286); conditions: ATP 20 µM
PDPK1 (human) = PDPK1 (human) (UniProt O15530)
PHKG1 or PHKG2 (human) = PHKG1 or PHKG2 (human) (UniProt P15735+Q16816); conditions: ATP 50 µM
PIM2 (human) = PIM2 (human) (UniProt Q9P1W9); conditions: ATP 5 µM
PIM3 (human) = PIM3 (human) (UniProt Q86V86); conditions: ATP 20 µM
PLK1 (human) = PLK1 (human) (UniProt P53350); conditions: ATP 5 µM
PRKAA1 or PRKAA2 (rat) = conditions: compound 1.0 µM; accession and sequence are those of the human protein
PRKCG (human) = PRKCG (human) (UniProt P05129); conditions: ATP 5 µM
ROCK2 (human) = ROCK2 (human) (UniProt O75116); conditions: ATP 20 µM
RPS6KA1 KD1 KD2 (human) = RPS6KA1 KD1 KD2 (human) (UniProt Q15418); conditions: ATP 50 µM
RPS6KA3 KD1 KD2 (human) = RPS6KA3 KD1 KD2 (human) (UniProt P51812); conditions: ATP 50 µM
RPS6KA5 KD1 KD2 (human) = RPS6KA5 KD1 KD2 (human) (UniProt O75582); conditions: ATP 20 µM
STK3 (human) = STK3 (human) (UniProt Q13188); conditions: ATP 20 µM
LCK (mouse) = conditions: compound 10.0 µM; ATP 50 µM; accession and sequence are those of the human protein
MAPK9 (human) = MAPK9 (human) (UniProt P45984); conditions: compound 10.0 µM; ATP 20 µM
MARK3 (human) = MARK3 (human) (UniProt P27448); conditions: compound 10.0 µM; ATP 5 µM

PDPK1 (human), sequence (O15530 whole entry, looked up): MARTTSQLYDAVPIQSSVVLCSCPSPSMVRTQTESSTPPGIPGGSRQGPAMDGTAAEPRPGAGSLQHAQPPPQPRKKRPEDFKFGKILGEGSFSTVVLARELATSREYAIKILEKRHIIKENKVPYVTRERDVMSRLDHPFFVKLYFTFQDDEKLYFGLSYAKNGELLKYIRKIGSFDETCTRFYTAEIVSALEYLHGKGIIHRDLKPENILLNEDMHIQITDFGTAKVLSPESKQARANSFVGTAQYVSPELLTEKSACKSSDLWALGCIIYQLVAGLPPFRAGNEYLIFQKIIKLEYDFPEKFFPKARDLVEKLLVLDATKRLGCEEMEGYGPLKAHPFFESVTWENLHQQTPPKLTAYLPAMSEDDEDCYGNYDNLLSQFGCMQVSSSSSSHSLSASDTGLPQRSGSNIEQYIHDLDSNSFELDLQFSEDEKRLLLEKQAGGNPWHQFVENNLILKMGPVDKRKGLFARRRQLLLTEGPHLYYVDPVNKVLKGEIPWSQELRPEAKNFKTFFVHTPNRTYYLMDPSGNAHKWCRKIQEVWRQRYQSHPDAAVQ
NEK7 (human), sequence (Q8TDX7 whole entry, looked up): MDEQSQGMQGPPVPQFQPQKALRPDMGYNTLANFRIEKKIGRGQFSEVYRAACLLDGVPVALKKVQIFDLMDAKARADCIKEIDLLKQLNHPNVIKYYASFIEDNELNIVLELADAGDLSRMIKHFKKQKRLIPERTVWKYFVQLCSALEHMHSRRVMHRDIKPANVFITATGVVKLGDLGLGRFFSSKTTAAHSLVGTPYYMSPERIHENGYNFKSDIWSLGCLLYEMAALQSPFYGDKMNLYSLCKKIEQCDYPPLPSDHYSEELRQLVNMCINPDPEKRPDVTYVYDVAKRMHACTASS
MAPK15 (human), sequence (Q8TD08 whole entry, looked up): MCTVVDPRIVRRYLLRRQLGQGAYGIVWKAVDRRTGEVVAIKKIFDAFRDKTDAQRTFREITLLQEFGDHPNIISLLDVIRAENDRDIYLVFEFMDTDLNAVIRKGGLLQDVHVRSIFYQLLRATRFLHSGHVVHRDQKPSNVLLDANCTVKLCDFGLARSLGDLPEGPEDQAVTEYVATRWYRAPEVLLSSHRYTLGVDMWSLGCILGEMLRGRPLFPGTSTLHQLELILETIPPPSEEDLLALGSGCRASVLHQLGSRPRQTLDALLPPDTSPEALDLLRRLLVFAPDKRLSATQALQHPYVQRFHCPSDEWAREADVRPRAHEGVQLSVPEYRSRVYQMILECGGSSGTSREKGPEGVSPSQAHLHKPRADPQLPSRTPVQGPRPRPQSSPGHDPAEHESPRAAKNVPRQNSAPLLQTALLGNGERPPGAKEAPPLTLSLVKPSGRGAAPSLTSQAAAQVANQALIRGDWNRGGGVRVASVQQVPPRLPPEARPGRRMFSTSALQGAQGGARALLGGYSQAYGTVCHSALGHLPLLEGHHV
PLK1 (human), sequence (P53350 whole entry, looked up): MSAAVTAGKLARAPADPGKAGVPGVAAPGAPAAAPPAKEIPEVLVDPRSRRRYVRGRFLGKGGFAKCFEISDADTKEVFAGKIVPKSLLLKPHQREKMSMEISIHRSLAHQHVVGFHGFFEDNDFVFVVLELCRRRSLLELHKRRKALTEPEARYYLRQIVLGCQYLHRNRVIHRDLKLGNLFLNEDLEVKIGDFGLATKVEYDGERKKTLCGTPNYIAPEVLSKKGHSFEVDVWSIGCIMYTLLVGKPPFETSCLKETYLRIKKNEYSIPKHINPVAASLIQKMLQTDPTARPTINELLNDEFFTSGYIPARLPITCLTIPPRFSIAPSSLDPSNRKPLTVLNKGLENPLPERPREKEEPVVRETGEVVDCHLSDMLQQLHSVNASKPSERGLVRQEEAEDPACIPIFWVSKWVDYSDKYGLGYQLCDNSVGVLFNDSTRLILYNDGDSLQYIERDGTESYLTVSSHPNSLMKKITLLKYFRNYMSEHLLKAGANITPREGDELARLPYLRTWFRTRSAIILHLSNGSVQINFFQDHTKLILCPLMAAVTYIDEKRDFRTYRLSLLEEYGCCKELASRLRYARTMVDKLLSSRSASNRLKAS
MAPK10 (human), sequence (P53779 whole entry, looked up): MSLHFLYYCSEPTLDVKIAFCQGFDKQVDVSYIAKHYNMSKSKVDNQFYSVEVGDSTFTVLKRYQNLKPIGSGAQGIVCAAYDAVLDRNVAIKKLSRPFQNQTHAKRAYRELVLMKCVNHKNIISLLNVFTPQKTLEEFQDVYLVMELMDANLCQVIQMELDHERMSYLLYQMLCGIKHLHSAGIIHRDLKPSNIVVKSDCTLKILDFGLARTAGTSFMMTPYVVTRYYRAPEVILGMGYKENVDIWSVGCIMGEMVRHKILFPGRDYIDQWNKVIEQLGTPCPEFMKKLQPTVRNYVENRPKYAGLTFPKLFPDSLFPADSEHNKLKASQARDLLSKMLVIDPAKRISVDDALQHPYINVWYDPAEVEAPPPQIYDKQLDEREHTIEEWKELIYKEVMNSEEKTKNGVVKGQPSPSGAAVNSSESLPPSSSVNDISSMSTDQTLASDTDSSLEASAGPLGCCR
PAK7 (human), sequence (Q9P286 whole entry, looked up): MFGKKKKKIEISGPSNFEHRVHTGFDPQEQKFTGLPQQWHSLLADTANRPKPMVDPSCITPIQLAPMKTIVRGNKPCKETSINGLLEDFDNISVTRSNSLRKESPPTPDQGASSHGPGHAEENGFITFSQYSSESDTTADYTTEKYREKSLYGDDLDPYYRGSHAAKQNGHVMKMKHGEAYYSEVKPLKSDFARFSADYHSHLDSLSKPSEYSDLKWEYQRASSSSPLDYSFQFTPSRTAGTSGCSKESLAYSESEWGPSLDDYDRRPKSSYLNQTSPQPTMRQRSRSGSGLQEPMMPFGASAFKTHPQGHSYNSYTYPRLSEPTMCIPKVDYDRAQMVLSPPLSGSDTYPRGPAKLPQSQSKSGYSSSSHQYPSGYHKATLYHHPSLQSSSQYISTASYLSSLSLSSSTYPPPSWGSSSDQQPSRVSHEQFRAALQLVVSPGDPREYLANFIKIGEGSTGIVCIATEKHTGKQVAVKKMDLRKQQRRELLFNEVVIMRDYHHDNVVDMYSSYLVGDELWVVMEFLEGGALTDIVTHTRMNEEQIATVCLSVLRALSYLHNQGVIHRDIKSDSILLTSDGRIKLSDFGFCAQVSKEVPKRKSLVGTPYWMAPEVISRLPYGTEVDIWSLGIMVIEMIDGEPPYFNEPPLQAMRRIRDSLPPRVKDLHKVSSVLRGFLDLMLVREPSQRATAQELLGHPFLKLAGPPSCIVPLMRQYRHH
MAPKAPK5 (human), sequence (Q8IW41 whole entry, looked up): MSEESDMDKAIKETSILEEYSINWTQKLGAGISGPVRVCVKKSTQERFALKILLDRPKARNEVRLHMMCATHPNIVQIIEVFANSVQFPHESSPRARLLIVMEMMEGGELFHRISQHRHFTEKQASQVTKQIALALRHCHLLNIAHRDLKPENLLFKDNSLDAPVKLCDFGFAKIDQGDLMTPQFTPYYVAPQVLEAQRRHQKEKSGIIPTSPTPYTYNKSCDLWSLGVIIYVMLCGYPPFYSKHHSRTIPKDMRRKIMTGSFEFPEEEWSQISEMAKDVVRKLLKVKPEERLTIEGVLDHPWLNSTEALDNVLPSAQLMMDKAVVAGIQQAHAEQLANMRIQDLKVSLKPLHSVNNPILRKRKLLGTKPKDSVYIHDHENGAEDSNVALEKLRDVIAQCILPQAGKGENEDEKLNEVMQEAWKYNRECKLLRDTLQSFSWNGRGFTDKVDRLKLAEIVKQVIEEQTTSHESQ
NEK6 (human), sequence (Q9HC98 whole entry, looked up): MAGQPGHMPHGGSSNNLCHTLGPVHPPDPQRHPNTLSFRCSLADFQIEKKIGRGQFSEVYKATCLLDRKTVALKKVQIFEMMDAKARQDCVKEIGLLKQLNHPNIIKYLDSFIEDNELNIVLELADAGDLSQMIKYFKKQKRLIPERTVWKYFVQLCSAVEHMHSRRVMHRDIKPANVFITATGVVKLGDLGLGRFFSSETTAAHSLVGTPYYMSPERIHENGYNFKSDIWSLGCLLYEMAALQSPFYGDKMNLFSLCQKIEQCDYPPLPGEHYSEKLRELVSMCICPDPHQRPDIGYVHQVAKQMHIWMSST

Question: How did the residual activity ([1]; compound 1.0 µM) turn out when `O=S(=O)(NCCNC/C=C/c1ccc(Br)cc1)c1cccc2cnccc12` was run?
Answer: 14%

Question: And the residual activity (AURKC (human))?
Answer: 73%

Question: What about the residual activity (CAMKK2 (human); compound 1.0 µM) of the same compound?
Answer: 102%

Question: What about the residual activity (CHEK2 (human); compound 1.0 µM) of the same compound?
Answer: 69%

Question: And the residual activity (CSK (human))?
Answer: 89%

Question: What about the residual activity (CaMK1 (human); compound 1.0 µM) of the same compound?
Answer: 101%

Question: What about the residual activity (DYRK1A (human); compound 1.0 µM) of the same compound?
Answer: 96%

Question: What about the residual activity (DYRK2 (human); compound 1.0 µM) of the same compound?
Answer: 105%

Question: And the residual activity (IKBKB (human); compound 1.0 µM)?
Answer: 98%

Question: What about the residual activity (MAPK10 (human); compound 1.0 µM) of the same compound?
Answer: 93%

Question: And the residual activity (MAPK13 (human); compound 1.0 µM)?
Answer: 98%

Question: And the residual activity (MAPK14 (human); compound 1.0 µM)?
Answer: 99%

Question: And the residual activity (MAPK15 (human); compound 1.0 µM)?
Answer: 93%

Question: What about the residual activity (MAPKAPK2 (human); compound 1.0 µM) of the same compound?
Answer: 111%

Question: What about the residual activity (MAPKAPK3 (human)) of the same compound?
Answer: 105%

Question: And the residual activity (MAPKAPK5 (human); compound 1.0 µM)?
Answer: 89%

Question: And the residual activity (MELK (human))?
Answer: 43%

Question: And the residual activity (MKNK2 (human); compound 1.0 µM)?
Answer: 97%

Question: And the residual activity (NEK6 (human); compound 1.0 µM)?
Answer: 104%

Question: What about the residual activity (NEK7 (human); compound 1.0 µM) of the same compound?
Answer: 99%

Question: What about the residual activity (PAK6 (human)) of the same compound?
Answer: 76%

Question: What about the residual activity (PAK7 (human); compound 1.0 µM) of the same compound?
Answer: 84%

Question: What about the residual activity (PDPK1 (human); compound 1.0 µM, ATP 20 µM) of the same compound?
Answer: 91%

Question: What about the residual activity (PDPK1 (human); compound 1.0 µM, ATP 50 µM) of the same compound?
Answer: 56%

Question: What about the residual activity (PHKG1 or PHKG2 (human); compound 1.0 µM) of the same compound?
Answer: 76%

Question: And the residual activity (PIM2 (human); compound 1.0 µM)?
Answer: 91%

Question: What about the residual activity (PIM3 (human); compound 1.0 µM) of the same compound?
Answer: 91%

Question: What about the residual activity (PLK1 (human); compound 1.0 µM) of the same compound?
Answer: 95%

Question: And the residual activity (PRKAA1 or PRKAA2 (rat))?
Answer: 73%

Question: And the residual activity (PRKCG (human); compound 1.0 µM)?
Answer: 55%

Question: What about the residual activity (ROCK2 (human); compound 1.0 µM) of the same compound?
Answer: 6%

Question: What about the residual activity (RPS6KA1 KD1 KD2 (human); compound 1.0 µM) of the same compound?
Answer: 36%

Question: What about the residual activity (RPS6KA3 KD1 KD2 (human); compound 1.0 µM) of the same compound?
Answer: 55%

Question: What about the residual activity (RPS6KA5 KD1 KD2 (human); compound 1.0 µM) of the same compound?
Answer: 9%

Question: And the residual activity (STK3 (human); compound 1.0 µM)?
Answer: 81%

Question: With `N#CC(=C(\N)Sc1ccccc1N)/C(C#N)=C(/N)Sc1ccccc1N` as the compound, how does the residual activity ([1]; compound 10.0 µM) read?
Answer: 76%

Question: What about the residual activity (CAMKK2 (human); compound 10.0 µM) of the same compound?
Answer: 92%

Question: And the residual activity (CHEK2 (human); compound 10.0 µM)?
Answer: 98%

Question: And the residual activity (CaMK1 (human); compound 10.0 µM)?
Answer: 69%

Question: And the residual activity (DYRK1A (human); compound 10.0 µM)?
Answer: 69%

Question: What about the residual activity (DYRK2 (human); compound 10.0 µM) of the same compound?
Answer: 84%

Question: What about the residual activity (IKBKB (human); compound 10.0 µM) of the same compound?
Answer: 118%

Question: What about the residual activity (LCK (mouse)) of the same compound?
Answer: 84%

Question: What about the residual activity (MAPK10 (human); compound 10.0 µM) of the same compound?
Answer: 98%

Question: What about the residual activity (MAPK13 (human); compound 10.0 µM) of the same compound?
Answer: 93%

Question: And the residual activity (MAPK14 (human); compound 10.0 µM)?
Answer: 77%

Question: What about the residual activity (MAPK15 (human); compound 10.0 µM) of the same compound?
Answer: 67%

Question: What about the residual activity (MAPK9 (human)) of the same compound?
Answer: 73%

Question: And the residual activity (MAPKAPK2 (human); compound 10.0 µM)?
Answer: 95%

Question: What about the residual activity (MAPKAPK5 (human); compound 10.0 µM) of the same compound?
Answer: 92%

Question: And the residual activity (MARK3 (human))?
Answer: 95%

Question: And the residual activity (MKNK2 (human); compound 10.0 µM)?
Answer: 85%

Question: And the residual activity (NEK6 (human); compound 10.0 µM)?
Answer: 90%

Question: And the residual activity (NEK7 (human); compound 10.0 µM)?
Answer: 97%

Question: What about the residual activity (PAK7 (human); compound 10.0 µM) of the same compound?
Answer: 86%

Question: What about the residual activity (PDPK1 (human); compound 10.0 µM, ATP 20 µM) of the same compound?
Answer: 77%

Question: What about the residual activity (PDPK1 (human); compound 10.0 µM, ATP 50 µM) of the same compound?
Answer: 77%

Question: What about the residual activity (PHKG1 or PHKG2 (human); compound 10.0 µM) of the same compound?
Answer: 94%

Question: What about the residual activity (PIM2 (human); compound 10.0 µM) of the same compound?
Answer: 101%

Question: And the residual activity (PIM3 (human); compound 10.0 µM)?
Answer: 63%

Question: And the residual activity (PLK1 (human); compound 10.0 µM)?
Answer: 92%

Question: What about the residual activity (PRKCG (human); compound 10.0 µM) of the same compound?
Answer: 78%

Question: And the residual activity (ROCK2 (human); compound 10.0 µM)?
Answer: 81%

Question: What about the residual activity (RPS6KA1 KD1 KD2 (human); compound 10.0 µM) of the same compound?
Answer: 83%

Question: What about the residual activity (RPS6KA3 KD1 KD2 (human); compound 10.0 µM) of the same compound?
Answer: 81%

Question: What about the residual activity (RPS6KA5 KD1 KD2 (human); compound 10.0 µM) of the same compound?
Answer: 85%

Question: What about the residual activity (STK3 (human); compound 10.0 µM) of the same compound?
Answer: 96%
